Measurements reported in publication PMC9851200, “Multiparameter phenotypic screening for endogenous TFEB and TFE3 translocation identifies novel chemical series modulating lysosome function” (Autophagy, 2022).

Experiments:
Format in all cases: binding
[1] = target: kinases (KINOMEscan panel) (Homo sapiens, UniProt Q9BWU1); settings: kinase CDK19; NEW KINOMEscan
[2] = target: T1, kinases (KINOMEscan panel) (Homo sapiens, UniProt P42680); settings: kinase TEC; NEW KINOMEscan
T1 sequence (P42680 1-631): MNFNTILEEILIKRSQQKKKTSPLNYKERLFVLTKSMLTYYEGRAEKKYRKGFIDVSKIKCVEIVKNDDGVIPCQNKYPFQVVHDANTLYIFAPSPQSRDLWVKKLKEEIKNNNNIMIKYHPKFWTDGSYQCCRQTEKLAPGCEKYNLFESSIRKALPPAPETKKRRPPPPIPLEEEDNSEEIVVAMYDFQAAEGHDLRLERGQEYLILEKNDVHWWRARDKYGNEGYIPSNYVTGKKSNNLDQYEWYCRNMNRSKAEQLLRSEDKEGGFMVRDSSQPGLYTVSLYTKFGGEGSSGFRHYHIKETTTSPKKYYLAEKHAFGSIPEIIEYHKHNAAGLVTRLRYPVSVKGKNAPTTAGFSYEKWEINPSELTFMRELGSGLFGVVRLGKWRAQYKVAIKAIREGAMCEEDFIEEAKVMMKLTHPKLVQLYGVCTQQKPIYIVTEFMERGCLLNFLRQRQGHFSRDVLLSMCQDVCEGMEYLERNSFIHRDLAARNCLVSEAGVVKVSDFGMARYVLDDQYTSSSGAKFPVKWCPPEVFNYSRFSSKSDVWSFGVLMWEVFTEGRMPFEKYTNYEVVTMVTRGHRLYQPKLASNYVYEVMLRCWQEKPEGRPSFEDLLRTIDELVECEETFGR

[3] = target: T2, kinases (KINOMEscan panel) (Homo sapiens, UniProt Q15835); settings: NEW KINOMEscan
T2 sequence (Q15835 1-563): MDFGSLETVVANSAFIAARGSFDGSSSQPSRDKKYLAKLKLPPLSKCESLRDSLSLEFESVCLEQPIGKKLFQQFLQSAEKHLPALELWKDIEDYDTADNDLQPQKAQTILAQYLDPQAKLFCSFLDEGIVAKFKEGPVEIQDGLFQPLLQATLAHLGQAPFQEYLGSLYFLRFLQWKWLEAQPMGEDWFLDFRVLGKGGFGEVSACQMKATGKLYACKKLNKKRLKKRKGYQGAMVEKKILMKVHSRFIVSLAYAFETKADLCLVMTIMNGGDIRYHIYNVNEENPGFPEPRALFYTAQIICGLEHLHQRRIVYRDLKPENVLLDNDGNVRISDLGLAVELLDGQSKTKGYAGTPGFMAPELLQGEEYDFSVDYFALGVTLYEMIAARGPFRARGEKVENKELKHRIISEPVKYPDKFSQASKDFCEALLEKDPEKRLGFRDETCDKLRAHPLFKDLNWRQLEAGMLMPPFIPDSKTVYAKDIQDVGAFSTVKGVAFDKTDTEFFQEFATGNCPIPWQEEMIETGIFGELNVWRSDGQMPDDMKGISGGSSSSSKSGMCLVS

[4] = target: kinases (KINOMEscan panel) (Homo sapiens, UniProt P42336, C420R); settings: PIK3CA(C420R); NEW KINOMEscan
Chain of kinases (KINOMEscan panel) (Homo sapiens, UniProt P42336, C420R) (P42336 whole entry C420R): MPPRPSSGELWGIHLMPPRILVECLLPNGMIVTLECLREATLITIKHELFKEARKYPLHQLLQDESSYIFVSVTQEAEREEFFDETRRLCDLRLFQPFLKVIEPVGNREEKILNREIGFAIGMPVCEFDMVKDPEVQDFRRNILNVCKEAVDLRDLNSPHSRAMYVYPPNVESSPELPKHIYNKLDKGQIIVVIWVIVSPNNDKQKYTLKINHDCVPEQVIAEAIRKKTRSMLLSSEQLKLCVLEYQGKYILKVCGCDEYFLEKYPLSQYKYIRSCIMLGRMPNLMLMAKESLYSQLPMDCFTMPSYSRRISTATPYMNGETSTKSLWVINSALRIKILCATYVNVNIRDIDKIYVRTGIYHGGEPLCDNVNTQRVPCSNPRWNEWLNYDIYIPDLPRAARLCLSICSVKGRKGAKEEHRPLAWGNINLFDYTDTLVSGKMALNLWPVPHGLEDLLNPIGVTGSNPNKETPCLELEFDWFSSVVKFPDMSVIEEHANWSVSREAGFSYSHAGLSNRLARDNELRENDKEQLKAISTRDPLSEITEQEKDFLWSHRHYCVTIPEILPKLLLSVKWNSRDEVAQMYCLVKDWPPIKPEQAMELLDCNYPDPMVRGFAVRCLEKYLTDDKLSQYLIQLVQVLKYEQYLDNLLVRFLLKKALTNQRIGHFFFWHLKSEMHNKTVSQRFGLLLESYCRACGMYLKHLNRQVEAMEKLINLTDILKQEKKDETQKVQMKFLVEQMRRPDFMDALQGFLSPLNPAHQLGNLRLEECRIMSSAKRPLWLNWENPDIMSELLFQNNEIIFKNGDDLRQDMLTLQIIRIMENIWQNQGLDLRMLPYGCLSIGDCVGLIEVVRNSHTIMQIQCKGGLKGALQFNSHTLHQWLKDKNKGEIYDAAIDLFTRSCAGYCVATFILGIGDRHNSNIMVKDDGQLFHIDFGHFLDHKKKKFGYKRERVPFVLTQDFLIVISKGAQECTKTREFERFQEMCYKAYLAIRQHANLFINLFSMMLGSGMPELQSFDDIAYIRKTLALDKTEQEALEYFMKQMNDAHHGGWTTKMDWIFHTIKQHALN

[5] = target: kinases (KINOMEscan panel) (Homo sapiens, UniProt P42336); settings: kinase PIK3CA; NEW KINOMEscan
Chain of kinases (KINOMEscan panel) (Homo sapiens, UniProt P42336) (P42336 whole entry): as the sequence (P42336 whole entry C420R) above, with R420C counted along it

[6] = target: T3, kinases (KINOMEscan panel) (Homo sapiens, UniProt Q12866); settings: kinase MERTK; NEW KINOMEscan
T3 sequence (Q12866 21-999): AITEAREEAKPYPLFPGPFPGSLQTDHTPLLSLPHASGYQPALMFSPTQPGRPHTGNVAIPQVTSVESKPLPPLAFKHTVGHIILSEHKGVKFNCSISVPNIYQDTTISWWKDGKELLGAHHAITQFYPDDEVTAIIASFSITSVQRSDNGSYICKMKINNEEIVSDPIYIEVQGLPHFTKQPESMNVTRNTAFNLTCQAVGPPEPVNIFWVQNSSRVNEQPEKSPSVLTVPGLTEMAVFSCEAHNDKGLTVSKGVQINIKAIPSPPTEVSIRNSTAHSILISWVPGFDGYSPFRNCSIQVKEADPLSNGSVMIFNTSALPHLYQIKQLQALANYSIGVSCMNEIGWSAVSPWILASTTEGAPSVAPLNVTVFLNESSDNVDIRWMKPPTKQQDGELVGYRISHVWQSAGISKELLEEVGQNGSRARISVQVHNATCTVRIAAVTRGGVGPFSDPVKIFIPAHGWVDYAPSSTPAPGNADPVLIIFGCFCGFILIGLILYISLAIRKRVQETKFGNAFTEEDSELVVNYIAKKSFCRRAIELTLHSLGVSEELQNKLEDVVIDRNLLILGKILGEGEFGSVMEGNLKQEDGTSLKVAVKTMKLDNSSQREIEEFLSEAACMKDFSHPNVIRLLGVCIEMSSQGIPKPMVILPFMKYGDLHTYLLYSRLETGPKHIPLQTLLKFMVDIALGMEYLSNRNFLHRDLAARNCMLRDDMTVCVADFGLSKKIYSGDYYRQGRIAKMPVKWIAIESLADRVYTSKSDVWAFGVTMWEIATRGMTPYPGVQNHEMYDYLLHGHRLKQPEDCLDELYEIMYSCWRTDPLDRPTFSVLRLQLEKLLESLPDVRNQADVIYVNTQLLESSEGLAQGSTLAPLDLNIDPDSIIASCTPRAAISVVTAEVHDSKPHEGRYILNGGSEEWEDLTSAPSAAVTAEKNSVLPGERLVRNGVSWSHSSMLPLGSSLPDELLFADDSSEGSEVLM

[7] = target: kinases (KINOMEscan panel) (Homo sapiens, UniProt Q8TDR2); settings: STK35; NEW KINOMEscan
Chain of kinases (KINOMEscan panel) (Homo sapiens, UniProt Q8TDR2) (Q8TDR2 whole entry): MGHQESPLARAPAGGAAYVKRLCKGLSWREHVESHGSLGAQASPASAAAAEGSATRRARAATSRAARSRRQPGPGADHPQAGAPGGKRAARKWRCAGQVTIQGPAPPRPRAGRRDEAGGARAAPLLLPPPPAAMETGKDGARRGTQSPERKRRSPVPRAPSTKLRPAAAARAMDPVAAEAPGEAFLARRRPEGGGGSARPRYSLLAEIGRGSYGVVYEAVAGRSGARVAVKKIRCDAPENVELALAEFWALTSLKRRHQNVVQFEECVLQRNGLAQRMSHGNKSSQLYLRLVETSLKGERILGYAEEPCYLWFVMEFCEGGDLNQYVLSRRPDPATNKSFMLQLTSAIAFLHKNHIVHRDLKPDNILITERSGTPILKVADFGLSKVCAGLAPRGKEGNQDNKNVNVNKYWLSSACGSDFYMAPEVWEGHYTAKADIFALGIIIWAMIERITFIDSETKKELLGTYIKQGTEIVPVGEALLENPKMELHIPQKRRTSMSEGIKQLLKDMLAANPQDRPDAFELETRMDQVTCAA

[8] = target: kinases (KINOMEscan panel) (Homo sapiens, UniProt P19525); settings: kinase ElF2AK2; NEW KINOMEscan
Chain of kinases (KINOMEscan panel) (Homo sapiens, UniProt P19525) (P19525 whole entry): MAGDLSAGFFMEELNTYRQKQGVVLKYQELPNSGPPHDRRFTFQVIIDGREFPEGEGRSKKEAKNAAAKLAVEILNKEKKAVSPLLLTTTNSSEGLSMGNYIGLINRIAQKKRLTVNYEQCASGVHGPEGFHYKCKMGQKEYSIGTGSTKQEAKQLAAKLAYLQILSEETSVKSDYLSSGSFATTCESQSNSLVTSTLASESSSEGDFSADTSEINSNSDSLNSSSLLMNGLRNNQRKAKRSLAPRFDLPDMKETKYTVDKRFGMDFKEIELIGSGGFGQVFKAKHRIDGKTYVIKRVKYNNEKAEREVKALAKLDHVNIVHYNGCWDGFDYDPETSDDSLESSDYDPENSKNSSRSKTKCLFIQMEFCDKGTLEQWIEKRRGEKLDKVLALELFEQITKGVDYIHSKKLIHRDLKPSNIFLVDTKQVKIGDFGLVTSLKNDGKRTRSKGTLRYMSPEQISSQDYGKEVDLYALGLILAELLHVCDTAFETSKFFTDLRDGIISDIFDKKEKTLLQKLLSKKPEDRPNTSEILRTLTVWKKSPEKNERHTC

[9] = target: kinases (KINOMEscan panel) (Homo sapiens, UniProt P24723); settings: kinase PRKCH; NEW KINOMEscan
Chain of kinases (KINOMEscan panel) (Homo sapiens, UniProt P24723) (P24723 whole entry): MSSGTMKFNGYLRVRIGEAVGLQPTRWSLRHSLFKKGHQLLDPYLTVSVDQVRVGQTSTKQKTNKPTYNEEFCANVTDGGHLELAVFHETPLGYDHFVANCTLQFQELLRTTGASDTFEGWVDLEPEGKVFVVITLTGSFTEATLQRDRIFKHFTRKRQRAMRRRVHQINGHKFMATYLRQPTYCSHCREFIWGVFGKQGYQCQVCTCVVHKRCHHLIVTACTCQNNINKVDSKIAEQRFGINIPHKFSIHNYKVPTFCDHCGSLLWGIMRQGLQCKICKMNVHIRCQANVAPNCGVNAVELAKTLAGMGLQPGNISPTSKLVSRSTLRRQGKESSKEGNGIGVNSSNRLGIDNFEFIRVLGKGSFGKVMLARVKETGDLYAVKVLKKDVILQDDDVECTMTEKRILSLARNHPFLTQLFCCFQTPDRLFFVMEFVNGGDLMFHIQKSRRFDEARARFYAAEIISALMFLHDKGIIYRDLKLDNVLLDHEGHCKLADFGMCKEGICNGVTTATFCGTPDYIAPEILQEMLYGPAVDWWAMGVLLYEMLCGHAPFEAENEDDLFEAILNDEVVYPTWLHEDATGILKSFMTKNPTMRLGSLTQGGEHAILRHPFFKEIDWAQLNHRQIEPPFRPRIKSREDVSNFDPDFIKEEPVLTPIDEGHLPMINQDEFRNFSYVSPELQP

Chain of kinases (KINOMEscan panel) (Homo sapiens, UniProt Q9BWU1) (Q9BWU1 whole entry): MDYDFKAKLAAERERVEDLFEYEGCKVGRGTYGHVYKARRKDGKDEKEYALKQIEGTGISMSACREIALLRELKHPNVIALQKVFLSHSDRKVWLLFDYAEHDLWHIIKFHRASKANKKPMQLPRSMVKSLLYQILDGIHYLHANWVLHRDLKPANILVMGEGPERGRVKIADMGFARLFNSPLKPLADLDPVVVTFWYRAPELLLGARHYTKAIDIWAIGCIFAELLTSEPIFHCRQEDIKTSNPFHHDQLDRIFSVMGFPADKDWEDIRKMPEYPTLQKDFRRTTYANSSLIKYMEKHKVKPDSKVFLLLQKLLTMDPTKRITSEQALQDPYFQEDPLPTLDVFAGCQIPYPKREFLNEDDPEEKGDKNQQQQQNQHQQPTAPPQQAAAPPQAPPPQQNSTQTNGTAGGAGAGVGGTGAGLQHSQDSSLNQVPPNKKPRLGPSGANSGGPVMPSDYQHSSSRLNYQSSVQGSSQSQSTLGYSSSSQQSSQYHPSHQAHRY

Structure (SMILES) | KINOMEscan CDK19 [1] | KINOMEscan TEC [2] | KINOMEscan GRK1 [3] | KINOMEscan PIK3CA(C420R) [4] | KINOMEscan PIK3CA [5] | KINOMEscan MERTK [6] | KINOMEscan STK35 [7] | KINOMEscan ElF2AK2 [8] | KINOMEscan PRKCH [9]
Cc1cccc(-c2nc(Nc3ccc4nn(C)cc4c3)c3ccccc3n2)n1 [NK167] | 24 | 0 | 37 | 0 | 0 | 0 | 0 | 19 | 21
Cc1cccc(-c2nc(N(C)c3ccc4ncsc4c3)c3ccccc3n2)n1 [NK-161] | 4 | 0 | 25 | 0 | 0 | 11 | 0 | 7 | 8
